The term IC50 denotes the concentration that inhibits the measured activity by half. A word on the inhibition: it is the share of the control response that was lost under treatment.

Chain of human D3R (P35462 whole entry): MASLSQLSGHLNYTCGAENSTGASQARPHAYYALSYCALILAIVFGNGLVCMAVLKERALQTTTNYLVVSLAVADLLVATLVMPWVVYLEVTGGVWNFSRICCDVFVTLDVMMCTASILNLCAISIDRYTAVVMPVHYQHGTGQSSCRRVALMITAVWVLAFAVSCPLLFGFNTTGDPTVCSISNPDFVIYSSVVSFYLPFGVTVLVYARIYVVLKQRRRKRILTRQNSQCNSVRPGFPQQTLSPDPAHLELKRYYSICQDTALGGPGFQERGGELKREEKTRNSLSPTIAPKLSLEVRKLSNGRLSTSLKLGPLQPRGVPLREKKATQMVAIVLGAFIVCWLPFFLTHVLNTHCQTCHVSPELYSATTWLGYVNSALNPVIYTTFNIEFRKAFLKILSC

One assay has as its target human D3R (Homo sapiens, UniProt P35462). Kind of assay: [3H]-spiperone filtration binding assay on membranes from CHO–hDRD3 cells.
Conditions: not given
Turning to `Cc1nc(Nc2ccc(NC(=O)Nc3ccc4c(c3)OCCO4)cc2)cc(NC2CCCCC2)n1` [Compound D638-0102], the IC50 came out at 1480 nM.

`Cc1ccc(SCc2nc(-c3ccc(C(=O)Nc4ccc5c(c4)OCO5)cc3)oc2C)cc1` [Compound E776-0059] came in with an IC50 of 970 nM.

For `Cc1cc(N2CCC(C(=O)N[C@@H]3CCCc4ccccc43)CC2)n2nc(-c3ccccc3)cc2n1` [Compound L227-1012], the IC50 amounted to 1490 nM.

`Cc1ccc(-c2c3c(=O)n(C)c(=O)n(C)c3c3n2C(C)(C)CO[C@H]3c2ccc(C)cc2O)cc1` [Compound D280-0447] showed an IC50 of 1250 nM.

Take `Cc1ccc(CNC(=O)c2ccc3c(=O)n(-c4ccc(C)cc4)c(N4CCCC4)nc3c2)cc1` [Compound F072-0905]: the IC50 was 1410 nM.

The assay is the same for the next values; noted with them: 10 µM test compound; displacement of [3H]-spiperone.
As to `Cc1oc(-c2ccc(C(=O)NCc3ccccc3)cc2)nc1CN1CCc2ccccc21` [Compound G373-0280], the “Inhibition Rate at 10 µM” value is reported as 74.8%.

Still in this assay, the particulars now being: read-out: Inhibition Rate at 10 µM.
Consider `Cc1nc(Nc2ccc(NC(=O)Nc3ccc4c(c3)OCCO4)cc2)cc(NC2CCCCC2)n1` [Compound D638-0102], for which the inhibition at 10 µM was 93.6%.

Consider `Cc1ccc(SCc2nc(-c3ccc(C(=O)Nc4ccc5c(c4)OCO5)cc3)oc2C)cc1` [Compound E776-0059], for which the inhibition at 10 µM worked out at 96.9%.

As to `Cc1cc(N2CCC(C(=O)N[C@@H]3CCCc4ccccc43)CC2)n2nc(-c3ccccc3)cc2n1` [Compound L227-1012], the inhibition at 10 µM amounted to 94.8%.

With `Cc1ccc(-c2c3c(=O)n(C)c(=O)n(C)c3c3n2C(C)(C)CO[C@H]3c2ccc(C)cc2O)cc1` [Compound D280-0447], the inhibition at 10 µM turned out to be 99.3%.

Turning to `Cc1ccc(CNC(=O)c2ccc3c(=O)n(-c4ccc(C)cc4)c(N4CCCC4)nc3c2)cc1` [Compound F072-0905], the inhibition at 10 µM came out at 99.5%.

Values taken from paper PMC9862751, “Identifying Dopamine D3 Receptor Ligands through Virtual Screening and Exploring the Binding Modes of Hit Compounds” (Molecules, 2023).
